According to patent publication US5567693A, “Method for inhibiting angiogenesis, proliferation of endothelial or tumor cells and tumor growth” (American Cyanamid Company, priority 1994, dated 1996):
Counter-ions that a name gives are not always drawn. Like-named read-outs stand apart in the source and are kept apart here.

Columns and labels:
Format in all cases: cell-based
[1] = tested on: HTB 161; test: Antiproliferative activity in human tumor cell lines: HTB 161 (ovarian); conditions: HTB 161 ovarian tumor, PROTOCOL 1 and PROTOCOL 2, 48 hours
Experimental: The assays are identified as follows:
(§1) PROTOCOL 1,2,and 3 are described in greater detail hereinbelow. In general, according to PROTOCOLS 1 and 2, the target ABAE and/or Human Tumor cells are exposed to the compounds of Formula I for 48 hours. PROTOCOL 3 exposes ABAE cells to the compounds for 4 days. A detailed description of the protocols is as follows:
(§2) The antiproliferative activity of the compounds of Formula I of the present invention is evaluated in a panel comprised of human tumor cell lines and an adult bovine aortic endothelial cell line (ABAE). The human tumor cell lines are from
Cultures are renewed after 20 passages with cells from a fresh stock of batch-frozen early passage cells. Cell lines are routinely checked for mycoplasma contamination (Genprobe). In a laminar flow hood, cells (1-5×10^4) are plated into 96-well microtiter plates in a volume of 0.1 ml/well with a bulk microtiter dispenser (Denley). […] Compounds are added using a Tomtec dispenser which simultaneously dispenses from one 96-well plate, containing the drug dilutions, to the plates containing the cells. After two days of continuous drug exposure, 50% cold trichloroacetic acid (TCA) is added to 10% final concentration to fix the cells, and after 60 minutes at 4° C., the TCA is aspirated and the plates are washed 5 times with deionized water using a microtiter plate washer. […] A 0.4% solution of the dye, sulforhodamine B, in […] is added to the plates, and the plates are washed 5 times with 1% glacial acetic acid using the automatic plate washed. The bound stain is solubilized with 0.1 ml of 10 mM Tris base. The optical densities are read from an automatic spectrophotometric plate reader (Dynatech) directly to a main frame computer (VAX 8600).
(§3) Positive controls, that include standard chemotherapeutic drugs (i.e., Adriamycin, Cisplatin, etc.), are included in every experiment.
(§4) Background optical density measurements (complete media-cells, and complete media+drug-cells) are automatically subtracted from the appropriate control and test wells. Mean values and standard errors are determined from duplicate wells. A measure is also made of the optical density at time when the drugs are added. The number of cells after treatment (P), as % of control, is calculated for every concentration of drug, as follows: [formula] wherein: T is optical density measurement for treated cells after 48 hours;
(§5) C is optical density measurement for untreated cells after 48 hours;
(§6) Co is optical density measurement for cells at the time of drug addition.
(§7) IC50 of growth inhibition is calculated from the sets of P values using the RS-1 data package (BBN Software).
(§8) The antiproliferative activity of the compounds of Formula I is evaluated in a panel comprised of human tumor cell lines and an adult bovine aortic cell line (ABAE) as listed in PROTOCOL 1. This assay is a modification of PROTOCOL 1. The modifications include:
(§9) 1) each concentration for each compound is tested in a single well;
(§10) 2) compounds are tested at 20, 4, 0.8, 0.16 microgram/ml and additionally in some experiments at 100 and 0.32 microgram/ml;
(§11) 3) samples are pipetted into a 96-well plate for each of the cell lines by a Beckman Biomek 1000 SL robot;
(§12) 4) after fixing with TCA each well is washed with 0.35 ml distilled water twice, not five times;
5) after staining with sulforhodamine B each well is washed 3 times, not five times;
6) the growth inhibition (I) as % of control, is calculated using the RS-1 data package (BBN Software), for every concentration of drug, as follows: [formula] wherein: T is optical density measurement for treated cells after 48 hours;
7) IC50 of growth inhibition is determined graphically from dose response curves, as is known in the art.

[2] = tested on: MIP; test: Antiproliferative activity in human tumor cell lines: MIP (colon); conditions: PROTOCOL 1 and PROTOCOL 2, 48 hours
Experimental: (§13) The antiproliferative activity of the compounds of Formula I in an Adult Bovine Aortic Endothelial (ABAE) cell line and in Human Tumor cell lines is evaluated in three similar assays that measure growth inhibition. The assays are identified as follows:
as §1, §2
(§14) All cell lines are maintained in log phase in RPMI 1640 media, supplemented with 5% fetal calf serum, penicillin/streptomycin and 2 mM L-glutamine. Cultures are renewed after 20 passages with cells from a fresh stock of batch-frozen early passage cells. Cell lines are routinely checked for mycoplasma contamination (Genprobe). In a laminar flow hood, cells (1-5×10^4) are plated into 96-well microtiter plates in a volume of 0.1 ml/well with a bulk microtiter dispenser (Denley). […] At this concentration, dimethylsulfoxide has no effect on cell growth. Compounds are added using a Tomtec dispenser which simultaneously dispenses from one 96-well plate, containing the drug dilutions, to the plates containing the cells. After two days of continuous drug exposure, 50% cold trichloroacetic acid (TCA) is added to 10% final concentration to fix the cells, and after 60 minutes at 4° C., the TCA is aspirated and the plates are washed 5 times with deionized water using a microtiter plate washer. The number of cells on the plate are quantitated using a protein dye-binding assay (Monks et al., 1991). A 0.4% solution of the dye, sulforhodamine B, in glacial acetic acid is added to the plates, and the plates are washed 5 times with 1% glacial acetic acid using the automatic plate washed. The bound stain is solubilized with 0.1 ml of 10 mM Tris base. The optical densities are read from an automatic spectrophotometric plate reader (Dynatech) directly to a main frame computer (VAX 8600).
as §3, §4, §5, §6, §7, §8, §9, §10, §11, §12
(§15) 5) after staining with sulforhodamine B each well is washed 3 times, not five times; […]

[3] = tested on: SW620; test: Antiproliferative activity in human tumor cell lines: SW620 (colon)
Experimental: as §13, §1, §2, §14, §3, §4, §5, §6, §7, §8, §9, §10, §11, §12, §15

[4] = tested on: Human Tumor cell lines; test: Antiproliferative activity in the panel of human tumor cell lines; conditions: for IC50: Homo sapiens, average over the 6 tumor cell lines
Experimental: as §13, §1, §2, §14, §3, §4, §5, §6, §7, §8, §9, §10, §11, §12, §15

[5] = SW-620, SW620 colon tumor, PROTOCOL 1 and PROTOCOL 2, 48 hours, read-out: IC50

SMILES	IC50 [1] [µg/mL]	IC50 [2] [µg/mL]	IC50 [3, 5] [µg/mL]	IC50 [4] [µg/mL]	inhibition of cell growth at the highest concentrations ([4]; FIG. 2, 6 Human Tumor cell lines, highest concentrations)	Dead floating cells ([4]; at the highest concentration)	IC50 ([3]; SW-620, 48 h) [µg/mL]
CCCCNCC(=O)Nc1c(Cl)cc2c(c1O)C(=O)C1=C(O)[C@]3(O)C(=O)C(C(N)=O)=C(O)[C@@H](N(C)C)C3CC1C2 (stereo partly drawn) [Example 4, [4S-(4α, 12aα)]-9-[[(Butylamino)acetyl]amino]-8-chloro-4-(dimethylamino) -1,4,4a,5,5a,6,11,12a-octahydro-3,10,12,12a-tetrahydroxy-1,11-dioxo-2-naphthacenecarboxamide dihydrochloride]	1.2	3.1	2.8	2.5	–	–	–
CCCNCC(=O)Nc1c(Cl)cc2c(c1O)C(=O)C1=C(O)[C@]3(O)C(=O)C(C(N)=O)=C(O)[C@@H](N(C)C)C3CC1C2 (stereo partly drawn) [Example 5, [4S-(4α, 12aα)]-8-Chloro-4-(dimethylamino)-1,4,4a,5,5a, 6,11,12a-octahydro-3,10,12,12a-tetrahydroxy-1,11-dioxo-9-[[(propylamino)acetyl]amino]-2-naphthacenecarboxamide dihydrochloride]	4	10	3.5	4.6	no 100% inhibition of cell growth	not observed	–
CN(C)CC(=O)Nc1c(Cl)cc2c(c1O)C(=O)C1=C(O)[C@]3(O)C(=O)C(C(N)=O)=C(O)[C@@H](N(C)C)C3CC1C2 (stereo partly drawn) [Example 3, [4S-(45, 12aα)]-8-Chloro-4-(dimethylamino)-9[[(dimethylamino)acetyl]amino]-1,4,4a,5,5a,6,11,12a-octahydro-3,10,12,12a-tetrahydroxy-1,11-dioxo-2-naphthacenecarboxamide disulfate]	1	2.2	2.3	1.9	–	–	–
CN(C)[C@@H]1C(O)=C(C(N)=O)C(=O)[C@@]2(O)C(O)=C3C(=O)c4c(cc(Cl)c(NC(=O)CNCC5CC5)c4O)CC3CC12 (stereo partly drawn) [Example 8, [4S-(4α,12aα)]-8-Chloro-9-[[(cyclopropylmethylamino)-acetyl]amino]4-(dimethylamino)-1,4,4a,5,5a,6,11,12a-octahydro-3,10,12,12a-tetrahydroxy-1,11-dioxo-2-naphthacenecarboxamide dihydrochloride]	1	3.8	2.4	2.45	–	–	–
CNCC(=O)Nc1c(Cl)cc2c(c1O)C(=O)C1=C(O)[C@]3(O)C(=O)C(C(N)=O)=C(O)[C@@H](N(C)C)C3CC1C2 (stereo partly drawn) [Example 7, [4S-(4α, 12aα)]-8-Chloro-4-(dimethylamino)-1,4,4a,5,5a,6,11,12a-octahydro-3,10,12,12a-tetrahydroxy-1,11-dioxo-9-[[(methylamino)acetyl]amino]-2-naphthacenecarboxamide dihydrochloride]	1.3	8.5	4	4.3	–	–	–
CN(C)[C@@H]1C(O)=C(C(N)=O)C(=O)[C@@]2(O)C(O)=C3C(=O)c4c(cc(Cl)c(NC(=O)CN5CCCC5)c4O)CC3CC12 (stereo partly drawn) [Example 9, [7S-(7α,10aα)]-N-[9-(Aminocarbonyl)-3-chloro-7-(dimethylamino)-5,5a,6,6a,7,10,10a,12-octahydro-1,8,10a,11-tetrahydroxy-10,12-dioxo-2-naphthacenyl]-1-pyrrolidineacetamide dihydrochloride]	1.9	0.8	–	1.45	–	–	2
CN(C)c1c(Cl)cc(O)c2c1CC1CC3[C@H](N(C)C)C(O)=C(C(N)=O)C(=O)[C@@]3(O)C(O)=C1C2=O (stereo partly drawn) [Example 11, [4S-(4α,12aα)]-8-Chloro-4,7-bis(dimethylamino)-1,4,4a,5,5a,6,11,12a-octahydro-3,10,12,12a-tetrahydroxy-1,11-dioxo-2-naphthacenecarboxamide sulfate]	0.7	2.6	4.5	2.8	–	–	–
CN(C)[C@@H]1C(O)=C(C(N)=O)C(=O)[C@@]2(O)C(O)=C3C(=O)c4c(cc(Cl)c(NC(=O)CN5CCCCC5)c4O)CC3CC12 (stereo partly drawn) [Example 10, 7S-(7α,10aα)]-N-[9-(Aminocarbonyl)-3-chloro-7-(dimethylamino)-5,5a,6,6a,7,10,10a,12-octahydro-1,8,10a,11-tetrahydroxy-10,12-dioxo-2-naphthacenyl]-1-piperidineacetamide dihydrochloride]	0.6	0.7	–	0.6	–	–	0.6
CCCCCNCC(=O)Nc1c(Cl)cc2c(c1O)C(=O)C1=C(O)[C@]3(O)C(=O)C(C(N)=O)=C(O)[C@@H](N(C)C)C3CC1C2 (stereo partly drawn) [Example 6, [4S-(4α, 12aα)]-8-Chloro-4-(dimethylamino)-1,4,4a,5,5a,6,11,12a-octahydro-3,10,12,12a-tetrahydroxy-1,11-dioxo-9-[[(pentylamino)acetyl]amino]-2-naphthacenecarboxamide dihydrochloride]	0.5	1.5	–	0.8	–	–	0.8
